This is an account of results in patent US5595763A (priority 1995, dated 1997).

One series has as its system diabetic rats. To be noted: treated diabetic rats, experiments run in parallel.
In series [1] the test system is rat treated neonatally with low doses of streptozocin. The note with it: in vivo.

As for `[Na+].[Na+].[O]=[W](=[O])([O-])[O-]` [sodium tungstate], the mortality result in the series on diabetic rats was “about 10%”. In addition, the survival result in series [1] is given as “all animals survived”.
